Like-named read-outs stand apart in the source and are kept apart here.

Assay [1] deals with fully kindled Wistar rats. As to the kind of experiment: Amygdala-kindling rat model. It is filed as in vivo. Particulars: challenge 1 h. The procedure:
Compounds were formulated in a 10% polyethylene glycol 400 (PEG 400) / 90% aqueous solution of 0.5 % methylcellulose (MC 0.5%). Firstly drugs are dissolved in PEG 400 and then suspended in MC 0.5 % for oral gavage at Xmg/5 mL/kg (X see table).
• 1. Procedure: Adult male Wistar rats (Harlan Laboratories, Netherlands, or Charles Rivers, Germany; body weight 300-350 g) were stereotaxically implanted with twisted bipolar plastic-coated stainless steel electrode (MS333-2-BIU 10 mm, Plastics One) into the right basolateral amygdala under isoflurane anesthesia. To place the electrode, trepanations were made in the skull and the electrode was lowered into the right basolateral amygdala (from bregma: anteriorposterior (AP): -2.5 mm, medio-lateral (ML): -3.5 mm, dorso-ventral (DV): -8.6 mm; α=10^0) and secured to the skull with screws and dental acrylate. After one week of recovery, they were handled daily and habituated over one week to the kindling setup. Kindling procedure: For a kindling session each rat was placed individually into a smooth acrylic plastic, round-bottomed bowl (0 36 cm, height 36 cm, BASi movement-responsive caging system) and its intracranial implanted electrode was connected to the stimulator (STG4008, Multichannel Systems GmbH) and the recording devices (PowerLab 8/35, ADInstruments Ltd) via a cable (335-340/3 (C), Plastics One). For the kindling procedure, each rat was exposed once daily to an electrical stimulation and the behavioral symptoms of the evoked seizure were observed and classified according to the modified Racine scale (stage 0, arrest, wet dog shakes, normal behaviour; stage 1, facial twitches: nose, lips, eyes; stage 2, chewing, head nodding; stage 3, forelimb clonus; stage 4, rearing, falling on forelimbs; stage 5, rearing, falling on side or back, rolling). […] The duration of electroencephalographic seizures (afterdischarge, AD) was recorded using LabChart7 Pro software (ADInstruments Ltd). Simultaneously, videos were recorded to evaluate seizure stage (SS). • 2. Compound testing: Acute drug effects were evaluated in groups of 6-8 fully kindled rats in a randomized cross-over design with 48h between drug and vehicle applications. Following oral administration of drug or vehicle, drug testing included determination of the afterdischarge threshold (the minimal stimulation intensity necessary to evoke an afterdischarge (electroencephalographically measured neuronal hyper-synchronous activity with an amplitude 2-times higher than baseline amplitude and a frequency of […]) of at least 3 sec duration) and monitoring electroencephalographic and behavioral correlates of the evoked seizure at ADT (afterdischarge threshold), including AD duration and SS, by a experimenter blind to treatment assignment.

The test system of assay [2] is primary neuronal cultures from embryonic rat brains. As to the kind of experiment: Rat oscillation assay (FLIPR, neuronal calcium oscillations). It is filed as cell-based. Put shortly: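 E18 Wistar rat cortical neurons cultured 8–10 days, loaded with 1 µM Fluo-8 AM, then kept in Mg2+-free HEPES-buffered HBSS (2 mM CaCl2, pH 7.4) to drive synchronized calcium oscillations. Fluorescence read at 1 Hz over 500 sec with or without XE-991, compound added at 250 sec; second acquisition 20 min after addition.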

What is called IC50 is the concentration needed to halve the response being measured. Take `O=C(NCc1cccc(C(F)(F)F)c1)NC1CC(C(F)F)C1` (single isomer, unassigned) [Example 53, 1-(3-(Difluoromethyl)Cyclobutyl)-3-(3-(Trifluoromethyl)Benzyl)Urea]: in assay [1] (30 mg/kg po), the “AD duration [% vs veh]” value was -93 % vs veh and the “Seizure stage [% vs veh]” value is reported as -81 % vs veh. In assay [2] (20 min after compound addition, AUC of fluorescence, read-out: FLIPR: IC50 [nM] 20 min), the IC50 was 295 nM. Besides, in assay [2] (acute phase, ratio of AUC fluorescence before and after compound addition, rat cortical neurons, Mg-free buffer, read-out: FLIPR: IC50 [nM] acute), the half-maximal inhibitory concentration (IC50) was 168 nM.
Regarding `O=C(NCc1cccc(C(F)(F)F)c1)NC12CC(C(F)F)(C1)C2` [Example 47, 1-(3-Difluoromethyl-Bicyclo[1.1.1]Pent-1-yl)-3-(3-Trifluoromethyl-Benzyl)-Urea], in assay [1] (10 mg/kg po), the “AD duration [% vs veh]” value was -85 % vs veh. Besides, in assay [1] (10 mg/kg po), the “Seizure stage [% vs veh]” value is -70 % vs veh. The IC50 in assay [2] (Rattus norvegicus, 20 min, 20 min after compound addition, AUC of fluorescence, read-out: FLIPR: IC50 [nM] 20 min) was 160 nM; in assay [2] (Rattus norvegicus, Cortical neurone, acute phase, ratio of AUC fluorescence before and after compound addition, rat cortical neurons, Mg-free buffer, read-out: FLIPR: IC50 [nM] acute) it was 118 nM.

The values above are taken from patent US20230303486A1, “CYCLOBUTYL-UREA DERIVATIVES” (Idorsia Pharmaceuticals Ltd, priority 2020, published 2023).
